According to US20090186832A1 (priority 2008, published 2009):
Counter-ions that a name gives are not always drawn. Like-named read-outs stand apart in the source and are kept apart here.

Assays:
[1] = dog, in vivo
[2] = for Simulated gastric fluid (pH 1.1): % remaining after 2 h/37° C. / Simulated intestinal fluid (pH 6.8): % remaining after 2 h/37° C.: simulated gi fluid
[3] = dog, in vivo, po
in vivo [4] = conditions: beagle, dog, po, 1 mg, Meptazinol AUCt
in vivo [5] = conditions: dog
[6] = dog, in vivo; remark: listed apart in the source
[7] = cited from earlier work

Molecule: CCC(C)[C@@H](NC(=O)Oc1ccc2c3c1OC1[C@@]4(OC)CC[C@@]5(C[C@@H]4[C@@](C)(O)C(C)(C)C)[C@@H](C2)N(CC2CC2)CC[C@]315)C(=O)O (stereo partly drawn) [Buprenorphine isoleucine carbamate]
- Cmax (mean ng/mL ± SD) ([1]; beagle, po): 1.25 ± 0.51 ng/mL
- Mean relative bioavailability % ([1]; beagle, po): 110%
- AUC (mean ngh/mL ± SD) [1]: 13.6 ± 3.9

Molecule: COC12CCC3(CC1C(C)(O)C(C)(C)C)C1Cc4ccc(OC(=O)NC(CCCCN)C(=O)O)c5c4C3(CCN1CC1CC1)C2O5 (stereo not drawn) [Buprenorphine lysine carbamate]
- AUC (mean ngh/mL ± SD) [1]: 4.70
- Cmax (mean ng/mL ± SD) [1]: 0.25 ± 0.19 ng/mL
- Mean relative bioavailability % [1]: 38%

Molecule: COC12CCC3(CC1C(C)(O)C(C)(C)C)C1Cc4ccc(OC(=O)NC(Cc5ccccc5)C(=O)O)c5c4C3(CCN1CC1CC1)C2O5 (stereo not drawn) [Buprenorphine phenylalanine carbamate]
- AUC (mean ngh/mL ± SD) [1]: 9.66 ± 1.92
- Cmax (mean ng/mL ± SD) [1]: 0.86 ± 0.32 ng/mL
- Mean relative bioavailability % [1]: 84.5%
- pH 10.0 buffer: % remaining after 2 h/20° C. [2]: 74%
- Distilled water (pH 5.9): % remaining after 2h/20° C. [2]: 99%
- Simulated gastric fluid (pH 1.1): % remaining after 2 h/37° C. [2]: 100%
- Simulated intestinal fluid (pH 6.8): % remaining after 2 h/37° C. [2]: 45%

Molecule: CCC1(c2cccc(O)c2)CCCCN(C)C1 (stereo not drawn) [Meptazinol HCl]
- AUC (mean ngh/mL ± SD) [3]: 15.6 ± 7.4
- AUC(0-t) (in vivo [4]): 5.87 ng·h/mL

Molecule: CC(C)[C@H](NC(=O)Oc1ccc2c3c1OC1C(=O)CC[C@@]4(O)[C@@H](C2)N(C)CC[C@]314)C(=O)O (stereo partly drawn) [Oxymorphone valine carbamate HCl, (S)-2-[(4,5-Epoxy-14-hydroxy-17-methylmorphinan-6-one-3-yl)-oxycarbonylamino]-3-methylbutanoic acid Hydrochloride]
- AUC (in vivo [5]; Beagle, po, 0.5 mg, Oxymorphone valine carbamate AUC): 234 ng·h/mL
- AUC(0-t) (in vivo [5]; Beagle, po, 0.5 mg, Oxymorphone valine carbamate AUCt): 232 ng·h/mL
- Cmax (in vivo [5]; Beagle, po, 0.5 mg, Oxymorphone valine carbamate Cmax): 75 ng/mL
- Mean relative bioavailability % ([6]; Beagle, 0.5 mg/kg): 816%
- Cmax (mean ng/mL ± SD) ([6]; Beagle, po, 0.5 mg/kg): 21.6 ± 7.2 ng/mL
- plasma levels of the prodrug relative to the drug itself ([6]; beagle, po): approx. 4 fold
- AUC (mean ngh/mL ± SD) ([6]; po): 94.4 ± 33.3
- time for which plasma drug levels were maintained above 50% of Cmax, prodrug vs drug itself ([6]; po): almost twice as long

Molecule: CN1CC[C@]23c4c5ccc(OC(=O)N[C@@H](Cc6ccccc6)C(=O)O)c4O[C@H]2C(=O)CC[C@@]3(O)[C@H]1C5 [Oxymorphone-Phe-Carbamate]
- pH 10.0 buffer: % remaining after 2 h/20° C. [2]: 17%
- Distilled water (pH 5.9): % remaining after 2h/20° C. [2]: 100%
- Simulated gastric fluid (pH 1.1): % remaining after 2 h/37° C. [2]: 100%
- Simulated intestinal fluid (pH 6.8): % remaining after 2 h/37° C. [2]: 82%

Molecule: CCC1(c2cccc(O)c2)CCCCN(C)C1 (stereo not drawn) [meptazinol, 3-(3-Ethyl-1-methyl-azepan-3-yl)-phenol]
- relative standard deviation (variability in meptazinol levels, mean AUC) ([3]; beagle): 26%
- Meptazinol AUC ([3]; beagle, 1 mg): 12.8±3.4
- range of observed oral bioavailabilities ([7]; oral, Norbury et al. (1983)): 2-20%
- reported mean bioavailability values ([7]; oral, Norbury et al. (1983)): 4-9%
- oral dose removed as it passes through the liver (first pass metabolism) ([7]; oral): up to 98%
- bioavailability ([7]; rectal formulation, Murray et al. (1989)): 15-20%

Molecule: CN1CC[C@]23c4c5ccc(O)c4O[C@H]2C(=O)CC[C@@]3(O)[C@H]1C5 [oxymorphone, 14-hydroxydihydromorphinone]
- AUC (in vivo [5]; iv, intravenous AUC value): 146 ng·h/mL
- half life ([7]; Adams and Ahdieh (2005)): ~7 h
- food effect: increase of Cmax values ([7]; Opana FDA labeling): ≤ 38%
- absolute oral bioavailability ([7]; Sloan et al. (2005)): 10%

Molecule: Oxymorphone-Isoleu-Carbamate
- pH 10.0 buffer: % remaining after 2 h/20° C. [2]: 36%
- Distilled water (pH 5.9): % remaining after 2h/20° C. [2]: 100%
- Simulated gastric fluid (pH 1.1): % remaining after 2 h/37° C. [2]: 100%
- Simulated intestinal fluid (pH 6.8): % remaining after 2 h/37° C. [2]: 97%

Molecule: Oxymorphone-Val-Carbamate
- pH 10.0 buffer: % remaining after 2 h/20° C. [2]: 32%
- Distilled water (pH 5.9): % remaining after 2h/20° C. [2]: 100%
- Simulated gastric fluid (pH 1.1): % remaining after 2 h/37° C. [2]: 100%
- Simulated intestinal fluid (pH 6.8): % remaining after 2 h/37° C. [2]: 97%
